According to patent publication US20100160295A1, “TREATMENT OF RESTLESS LEG SYNDROME AND SLEEP DISORDERS” (SYNOSIA THERAPEUTICS, priority 2008, published 2010):

Tests used:
Format in all cases: in vivo, human
[1] = tested on: moderate to severe idiopathic RLS subjects; assay: Restless Legs Scale - 6 items (RLS-6)
Protocol: (§1) The study multi-centre, randomized, double-blind, parallel-groups, placebo-controlled study with 2 treatment arms, oral HPPD inhibitor (2-(2-nitro-4-trifluoromethylbenzoyl)-1,3-cyclohexanedione) and placebo. Subjects were randomized to either treatment with an HPPD inhibitor or placebo in a 2:1 ratio. The subjects were dosed with 4 mg on day 1, and 2 mg/day on days 2-14. The total duration of treatment with study drug for each subject was 14 consecutive days ending at the day of the final sleep lab assessment (Day 14), with a follow-up examination 29 days after Baseline.
(§2) The objective of this exploratory study was to show proof-of-concept of therapy with an exemplary HPPD inhibitor in moderate to severe idiopathic RLS subjects.
(§3) Efficacy parameters were changes between Baseline and end of treatment in objective measures of Periodic Limb Movements (PLM) and sleep efficiency and in investigator evaluations of severity of RLS symptoms as well as in subject's report on severity of RLS symptoms, sleep disturbances and depressive feelings. […]

[2] = tested on: moderate to severe idiopathic RLS subjects; assay: Clinical Global Impressions Scale (CGI): severity, change and treatment effect
Protocol: as §1, §2
(§4) Efficacy parameters were changes between Baseline and end of treatment in objective measures of Periodic Limb Movements (PLM) and sleep efficiency and in investigator evaluations of severity of RLS symptoms as well as in subject's report on severity of RLS symptoms, sleep disturbances and depressive feelings. Parameters measured included: • Periodic Limb Movement (PLM) Index, defined as the number of PLM events occurring during time-in-bed (PLMI/h TIB) • Periodic Limb Movements during Sleep Index, defined as the number of PLMs per hour of total sleep time (PLMSI/h TST) • PLM arousal index, defined as the number of PLM with arousals per hour of total sleep time (PLMSAI/h TST) • Periodic Limb Movements during wakefulness index, defined as the number of PLMs per hour occurring during wakefulness within time-in-bed (PLMWI/h TIB) • Sleep Efficiency (SE) expressed as the percentage total sleep time (TST) of total time in bed (TIB) • Total Sleep Time (TST) • Total number of arousals per TST • Sleep latency • Restless Legs Scale—6 items (RLS-6) (Kohnen et al, 2004) • IRLS total score change from start of treatment to end • Time to requiring rescue medication (defined as time to dropout due to the need of rescue medication for intolerable RLS symptoms) • Physicians' Global Impression, rated by the Clinical Global Impressions Scale (CGI): severity, change and treatment effect • CGI responders defined as the proportion of subjects who improved “much” or “very much” on CGI item “change”. • Patients' Global Impression (PGI) scale Item 1 (efficacy) • Medical Outcomes Study (MOS) Sleep Scale • Beck Depression Inventory (BDI) • In addition, a patient diary was to be completed between days 8 and 15 • HPPD inhibitor plasma concentrations at Baseline, end of treatment and follow-up • Tyrosine plasma concentration at Baseline, end of treatment and follow-up.

[3] = tested on: moderate to severe idiopathic RLS subjects; assay: PSG measurements, Periodic Limb Movement (PLM) index; settings: log-transformed values on PSG measurements
Protocol: as §1, §2, §3

[4] = tested on: moderate to severe idiopathic RLS subjects; assay: Patients' Global Impression (PGI) scale Item 1 (efficacy)
Protocol: as §1, §2, §3

[5] = tested on: moderate to severe idiopathic RLS subjects; assay: Beck Depression Inventory (BDI)
Protocol: as §1, §2, §3

[6] = tested on: moderate to severe idiopathic RLS subjects; assay: Patient diary of RLS symptoms
Protocol: as §1, §2, §4

O=C1CCCC(=O)C1C(=O)c1ccc(C(F)(F)F)cc1[N+](=O)[O-] [HPPD Inhibitor, 2-(2-nitro-4-trifluoromethylbenzoyl)-1,3-cyclohexanedione]
RLS-6, all subscales: median (mean) differences between Baseline and EoT vs placebo ([1]; Baseline to EoT): more benefit than those treated with placebo
RLS-6 RLS symptoms during the night: difference drug-placebo, LS mean ([1]; M-ITT, 95%-CI: −4.52, 0.97, p=0.1910 two-sided from ANCOVA): −1.77
RLS-6 RLS symptoms when falling asleep: difference drug-placebo, LS mean ([1]; M-ITT, 95%-CI: −5.24, −0.01, p=0.0494 two-sided from ANCOVA): −2.62
CGI severity item, improvement vs placebo ([2]; EoT): larger improvement
CGI severity: subjects not at all or only borderline ill, percentage ([2]; EoT, M-ITT): 21.4%
CGI severity: subjects not at all or only borderline ill, number ([2]; EoT, M-ITT, none on placebo): 3 subjects
CGI severity: subjects with moderate to severe illness, number ([2]; EoT, M-ITT, placebo 5): 7 subjects
CGI severity: subjects with moderate to severe illness, percentage ([2]; EoT, M-ITT, placebo 71.4%): 50.0%
CGI change of condition: subjects very much or much improved (responder analysis), number ([2]; M-ITT, placebo 2): 7 subjects
CGI change of condition: subjects very much or much improved (responder analysis), percentage ([2]; M-ITT, placebo 28.6%): 50.0%
CGI treatment effect rated as very good or moderate, number of subjects ([2]; placebo 3): 8 subjects
CGI treatment effect rated as very good or moderate, percentage of subjects ([2]; placebo 42.9%): 57.1%
PLM index values, improvement as compared to placebo [3]: slightly larger improvement
PGI: subjects who assessed their therapy as efficacious, number ([4]; placebo 2): 7 subjects
PGI: subjects who assessed their therapy as efficacious, percentage ([4]; placebo 28.6%): 50.0%
depressive symptoms, mean differences between Baseline and EoT vs placebo [5]: larger reduction of depressive symptoms
patient diary, RLS symptoms during the day when active: difference drug-placebo, LS mean ([6]; M-ITT, 95%-CI: −2.52, −0.04, p=0.0437 two-sided from ANCOVA): −1.28
patient diary, RLS symptoms during the day: difference drug-placebo, LS mean ([6]; M-ITT, 95%-CI: −4.87, −0.27, p=0.0304 two-sided from ANCOVA): −2.57
patient diary, RLS symptoms when falling asleep: difference drug-placebo, LS mean ([6]; M-ITT, 95%-CI: −5.15, −0.13, p=0.0402 two-sided from ANCOVA): −2.64
patient diary, improvement of RLS symptoms during the night and during the day at rest, or during inactivity ([6]; vs placebo): Trends were found
